Experimental data as given in patent US11447535B2, “GLP-1 analogues” (Sun Pharmaceutical Industries Limited, priority 2018, dated 2022).
Marks after values point to notes of the source that are not given here.

Columns and labels:
[1] = Food intake and body weight recorded in the rat OGTT study; assay type: in vivo, rats; conditions: for Body Weight Change (%) Mean / Food Consumption (g) Mean: Exp. 1
Description: (§1) Animals were divided into three groups—a normal control group, a test group and a third semaglutide group, with 4 animals in each group. The animals were fasted for 12 hours before initiation of OGTT. To the test group animals, the Compound 1 was injected subcutaneously at 1 mg/kg dose. To the semaglutide group, a dose of 1 mg/kg was injected subcutaneously. After 22 hrs, 166 hrs and 334 hrs of subcutaneous injection of test drug or semaglutide, blood glucose was measured with blood glucose meter (time 0 measurements). All the animals were then given 2 g/kg of glucose solution orally. Blood glucose was measured at 20, 40, 60, 90 and 120 minutes following glucose challenge. Body weight and food intake was recorded. Blood glucose data was analyzed using Two way ANOVA followed by Bonferroni posttests using PRISM (Graph Pad version 5.03). Data of Blood glucose AUC0-120 min, was analyzed using t test.
as §1, with “animals,” for “animals, the”, “1, Compound 13 and Compound 16 were” for “1 was”, “compound” for “drug”

[2] = tested on: db/db mice (diabetic mouse model); assay: Separate db/db diabetic mouse study, q2d*15 up to day 28, recovery period day 29 to day 45; assay type: in vivo
Description: The study was performed in similar manner as above on diabetic mouse model. The animals were divided into three treatment groups—a diabetic control group, a test group and a semaglutide treatment group. The representative compounds of the present disclosure, Compound 1, Compound 13 and Compound 16, were injected subcutaneously at 3.04 or 6.078 nM dose (every alternate day up to day 28 (q2d*15). The same dosage regimen was administered in semaglutide treatment group. Measurements of blood glucose levels and body weight were done daily. % HbA1c, Insulin was measured on Day 0, day 14 and day 29. Cumulative food intake and body weight change was calculated on day 14 and 29. % HbA1c, Insulin data was analyzed by two way ANOVA followed by Bonferroni's posttests using PRISM (Graph Pad version 5.03). Whereas Blood Glucose AUC, Body weight change and Cumulative food intake data was analyzed by one way ANOVA followed by Bonferroni's posttests using PRISM (Graph Pad version 5.03). From day 29 to day 45, animals were kept on recovery period during which no drug treatment was given. Blood Glucose and Body weight was measured during this period. On day 45, Body weight Changes, % HbA1c, Insulin was measured.

[3] = tested on: db/db type 2 diabetic mice; assay: Reduction of HbA1c in db/db type 2 diabetic mice after chronic treatment (27 day study); assay type: in vivo
Description: This study was done in diabetic mouse model. The animals were divided into three treatment groups—a diabetic control group, a test group and a semaglutide treatment group. Compound 1 of the present disclosure was injected subcutaneously at 0.3 mg/kg dose once a day for 3 days (qd*3) followed by 0.1 mg/kg dose every alternate day for 7 doses (q2d*7) followed by 0.1 mg/kg dose once every four days for two dose cycles (q4d*2). The same dosage regimen was administered in semaglutide treatment group. Measurements of blood glucose levels and body weight were done daily. % HbA1c was measured on Day 0, day 7, day 14 and day 27 by column chromatography. Cumulative food intake was calculated on day 27. % HbA1C data was analyzed by two way ANOVA followed by Bonferroni's posttests using PRISM (Graph Pad version 5.03).

SD rats = assay: Oral glucose tolerance test (OGTT) in rats; single injection; 1 mg/kg; assay type: in vivo; set-up: Change in AUC (mg/dL*min): unit not given here; conditions: for Blood Glucose AUC (mg/dL*min) Mean / Change in AUC (mg/dL*min): 1 mg/Kg; for Blood Glucose AUC (mg/dL*min) Mean: Exp. 1; for Change in AUC (mg/dL*min): Exp. 1, vs control group
Description: as §1
as §1, with “animals,” for “animals, the”, “1, Compound 13 and Compound 16 were” for “1 was”, “compound” for “drug”

[4] = rats, 1 mg/kg s.c. single injection, Day 2
[5] = rats, 1 mg/kg s.c. single injection, Day 4
[6] = recovery period, earlier dose 6.078 nM
[7] = recovery study, day 45, earlier dose 6.078 nM (6.0788 nM given for Compound 13)

## N-ε^26-[2-(2-[2-(2-[2-(2-[4-(17-Carboxyheptadecanoylamino)-4(S)carboxybutyrylamino]ethoxy) ethoxy]acetylamino)ethoxy]ethoxy)acetyl][(Aib^8, Arg^34, Leu^38 GLP-1(7-38) peptide (HXXXGTFTSDVSSYLXGQAAXEFXAWLVRGRGXX; C18 diacid-gGlu-OEG-OEG on Lys26; Aib8; (2)..(2) Xaa = Aib; (3)..(3) Xaa = absent.; (4)..(4) Xaa = Glu.; (16)..(16) Xaa = Glu.; (21)..(21) Lys is substituted; (24)..(24) Xaa is Ile.; (33)..(33) Xaa is Leu.; (34)..(34) Xaa is absent.) [Compound 1]
[1]; 1 mg/Kg, 48 h
  Body Weight Change (%) Mean: −9.8%
  Food Consumption (g) Mean: 8.3 g
[1]; 1 mg/Kg, 154 h
  Body Weight Change (%) Mean: 5.2%
  Food Consumption (g) Mean: 69.6 g
[1]; 1 mg/Kg, 324 h
  Body Weight Change (%) Mean: 9.3%
  Food Consumption (g) Mean: 99.4 g
[1]; 1 mg/Kg, text on Table 8
  food consumed vs animals administered with semaglutide: consumed significantly less food
[1]; [4]
  Body Weight (Day 2) % Change vs Baseline: −9.33%
  Body Weight (g) (Day 2) Mean: 365.6 g
[1]; [5]
  Body Weight (Day 4) % Change vs Baseline: −7.5%
  Body Weight (g) (Day 4) Mean: 436.2* g
[1]; rats, 1 mg/kg s.c. single injection, day 0 to day 2
  Food Consumption (g) (day 0 to day 2) Mean: 2.63*** g
[1]; rats, 1 mg/kg s.c. single injection, day 0 to day 4
  Food Consumption (g) (day 0 to day 4) Mean: 43.25***^,## g
[2]; 6.078 nM, q2d*15
  Blood Glucose AUC (Day 0-29) % Change Vs Control: −45.75%
  Blood Glucose AUC (Day 0-29) (mg/dL*days) Mean: 9194.6*** mg/dL*days
  Body Weight Change Day 29, % Change vs Day 0 Mean: −0.3%
  Cumulative Food Intake (g) Day 0-29 Mean: 79.8 g
[2]; Day 0, 6.078 nM, q2d*15
  % HbA1C Mean: 7.8%
  Insulin (ng/mL) Mean: 18.0 ng/mL
[2]; Day 14, 6.078 nM, q2d*15
  % HbA1C Mean: 6.4 ** %
  Insulin (ng/mL) Mean: 58.1** ng/mL
[2]; Day 29, 6.078 nM, q2d*15
  % HbA1C Mean: 6.2 *** %
  Insulin (ng/mL) Mean: 54.7** ng/mL
[2]; about 3 nM and 6 nM dose
  HbA1c, blood glucose, food consumption and body weight vs control: significant reduction
[2]; [6]
  Blood Glucose AUC (Day 30-37) % Change vs Control: −22.39%
  Blood Glucose AUC (Day 30-37) (mg/dL*days) Mean: 2787.3* mg/dL*days
  Blood Glucose AUC (Day 38-45) % Change vs Control: −7.39%
  Blood Glucose AUC (Day 38-45) (mg/dL*days) Mean: 3335.7 mg·days/dL
[2]; [7]
  % HbA1C Mean: 7.6%
  Delta HbA1C vs. DC: −0.9
  Insulin (ng/mL) Mean: 30.9 ng/mL
[2]; recovery study, earlier dose 6.078 nM (6.0788 nM given for Compound 13)
  Body Weight % Change vs Day 45 Mean: 5.9%
[3]; db/db mice, 0 to 27th day (FIG. 8)
  cumulative food intake vs diabetic control group: significant reduction in food intake
[3]; db/db mice, Day 0 (before treatment)
  % HbA1c Mean: 4.87%
[3]; db/db mice, Day 27, vs Diabetic Control
  % HbA1c % Change vs DC: −3.57%
[3]; db/db mice, Day 27, s.c. 0.3 mg/kg qd*3, 0.1 mg/kg q2d*7, 0.1 mg/kg q4d*2
  % HbA1c Mean: 3.73***^## %
[3]; db/db mice, chronic treatment (FIG. 7)
  blood glucose levels vs diabetic control group: statistically significant reduction in blood glucose levels
[3]; db/db mice, day 0 to day 27 (FIG. 9)
  % change in body weight: −16%
[3]; db/db mice, latter phase of the study (FIG. 7)
  blood glucose effect vs semaglutide treatment group: superior to semaglutide treatment group in latter phase of the study
[3]; db/db type 2 diabetic mice, 27 day study
  HbA1c level after chronic treatment: statistically significant reduction in HbA1c level
SD rats; OGTT, 22 hr
  Blood Glucose AUC (mg/dL*min) Mean: 3173.0 mg·min/dL
  Change in AUC (mg/dL*min): −78.7
SD rats; OGTT, 168 hr
  Blood Glucose AUC (mg/dL*min) Mean: 5941.0 mg·min/dL
  Change in AUC (mg/dL*min): −65.4
SD rats; OGTT, 336 hr
  Blood Glucose AUC (mg/dL*min) Mean: 11920.0 mg·min/dL
  Change in AUC (mg/dL*min): −28.3
SD rats; OGTT, 22 hours after single dosing, 1 mg/kg s.c. (FIG. 6A)
  blood glucose level vs normal control: statistically significant reduction in blood glucose level
SD rats; OGTT, after 22 hrs, 1 mg/kg s.c. (FIG. 6A)
  glucose lowering effect vs semaglutide: superior to the glucose lowering effect observed with semaglutide
SD rats; OGTT, after 46 hours of subcutaneous administration (FIG. 6B)
  glucose lowering effect vs semaglutide: superiority of glucose lowering effect
SD rats; after 168 hrs of injection, 1 mg/kg
  reduction in blood glucose AUC: about 60%
